Assays:
[1] = molecular target: T1, acid sphingomyelinase (Homo sapiens, UniProt P17405); assay: Acid sphingomyelinase inhibition (results not shown); format: biochemical
T1 sequence (P17405 47-631): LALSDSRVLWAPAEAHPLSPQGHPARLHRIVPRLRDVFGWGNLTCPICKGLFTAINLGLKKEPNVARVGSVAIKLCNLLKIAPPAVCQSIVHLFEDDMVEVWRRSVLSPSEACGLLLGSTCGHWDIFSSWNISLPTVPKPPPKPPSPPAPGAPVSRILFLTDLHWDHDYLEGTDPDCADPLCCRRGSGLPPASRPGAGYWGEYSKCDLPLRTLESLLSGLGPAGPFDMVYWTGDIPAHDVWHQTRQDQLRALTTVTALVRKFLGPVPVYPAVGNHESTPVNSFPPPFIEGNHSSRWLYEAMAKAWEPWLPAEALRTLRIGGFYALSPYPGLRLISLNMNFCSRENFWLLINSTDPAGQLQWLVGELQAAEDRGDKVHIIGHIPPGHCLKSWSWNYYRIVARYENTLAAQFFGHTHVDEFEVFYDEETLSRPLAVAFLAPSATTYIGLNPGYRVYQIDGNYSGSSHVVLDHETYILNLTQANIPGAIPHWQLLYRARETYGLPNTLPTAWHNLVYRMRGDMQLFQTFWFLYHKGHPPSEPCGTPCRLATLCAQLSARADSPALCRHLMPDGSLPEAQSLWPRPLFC

[2] = tested on: Rat primary astrocytes; assay: Astrocyte activation, GFAP immunofluorescence (+/-) serum deprivation; format: cell-based; details: 10 μM, 2 h
Experimental: Independent laboratories have shown that pharmacological and genetic inhibition of nSMase2 blocks EV secretion from glial cells. […] Two hours after treatment, EVs were isolated from the media and quantified by nanoparticle tracking analysis. […] Cells were fixed and immunofluorescence labeling for GFAP was performed.
Media was collected after 2 h incubation and centrifuged at 2700 × g for 15 min at 4 °C. Supernatant was collected and the number of extracellular vesicles (EVs) was quantified using ZetaView Nanoparticle Tracker. The mean concentration of EVs/mL (±SEM) was calculated from 4 replicate experiments. […] Astrocytes grown in complete medium were used as no treatment control. Cells were fixed and stained with anti-GFAP antibody (1:500, Sigma). Fluorescence intensity was measured using Image J. (C) Quantitation of fluorescence in (B). Bar graph represents background corrected mean fluorescence intensity measured from 100 astrocytes per condition. Error bars represent standard error of mean. One-way ANOVA followed by Tukey’s posthoc test was performed.

[3] = tested on: GFAP-GFP mice; assay: Striatal IL-1β brain inflammation model: GFP-labeled astrocyte-derived EVs in plasma; format: in vivo, mouse; details: 10 mg/kg IP 0.5 h before IL-1β; 2 h post IL-1β
Experimental: As we have previously shown[11],[18], striatal injection of IL-1β in mice expressing GFP-GFAP in astroglia triggers a release of GFP-labelled EVs that rapidly enter into plasma, resulting in cytokine upregulation in liver and peripheral immune cell migration into brain[11]. […] There were two groups of mice: the first group was sacrificed 2 h after IL-1β administration by heart puncture, and GFP-labeled circulating EVs were measured with liver cytokines. […] Counting of astrocyte-released EV (GFP+) from blood and liver cytokine analysis was conducted by single injection of DPTIP. Although release of EVs from astrocytes can be initiated immediately after intracranial injection of IL-1β, infiltration of neutrophils in brain parenchyma occurred 12h-24h after the IL-1β injection. […] Western analysis using the isolated exosomal fraction confirmed the presence of CD63 (transmembrane protein), TSG101 (cytosolic protein) and Flotilin-1 (lipid raft associated protein), commonly used EV markers[19],[20]. The GFP signal was an indication that these EVs originated in brain[11] while lack of mitofilin and α-actinin signals indicated the vesicles were not of mitochondrial[21] or cytoskeletal[22] origin respectively (Fig. 6B).
Compounds were given 0.5 h before IL-1β dosing. One group of mice was sacrificed 2 h after IL-1β administration to determine effects of the various treatments on extracellular vesicles (EVs) releases from brain and liver cytokine analysis. […] (C) Liver cytokine levels under different treatments as measured by qRT-PCR of RNA isolated from fresh frozen liver tissue. Samples were analyzed in triplicate. **p < 0.01 and *p < 0.05 compared to saline control; ^##p < 0.01 and ^#p < 0.05 compared to IL1-β group. (D) Neutrophil levels in brain as measured by immunohistochemistry using coronal brain sections and Ly6b antibody. (E) Quantitation of (D); **p < 0.01 compared to saline control; ^##p < 0.01 compared to IL1-β group. […]

COc1cc(-c2nc(-c3cccs3)c(-c3ccccc3)[nH]2)cc(OC)c1O [DPTIP, 2,6-Dimethoxy-4-(5-Phenyl-4-Thiophen-2-yl-1H-Imidazol-2-yl)-Phenol]
IC50 [1]: > 100 µM | effect on GFAP levels without serum starvation ([2]; no serum starvation): did not change GFAP levels | effect on astrocyte activation (GFAP) in response to serum starvation ([2]; with serum deprivation): prevented astrocyte activation | reduction of number of astrocyte-derived EVs [3]: 51 ± 13%

From article PMC6286365 (Scientific Reports, 2018)
